Data reported in patent US9050312B2, “Strontium compound for treatment of sub-dermal soft tissue pain” (SANTOSOLVE AS, priority 2001, dated 2015).

Tested on: severe pain in the neck and shoulders
Assay: Clinical testing: severe pain in the neck and shoulders after a car accident
Format: in vivo, human
Details: person; had not slept continuously any night since the accident
Excerpt: A person was involved in a car accident seven years earlier and had developed severe pain in the neck and shoulders. The patient had used non-steroidal anti-inflammatory drugs for a long time without significant effect. They had not slept continuously any night since the accident.
The patient tried the composition of Example 19 by administering topically to the areas of pain. They claimed a pain relieving effect after one minute and had no or very little pain for the following 2 to 3 days. After administration of the composition of Example 13 they were able to sleep for about 10 hours each of the next two nights.

## CNCC(O)C(O)C(O)C(O)CO.CNCC(O)C(O)C(O)C(O)CO.O=C([O-])CN(CCN(CC(=O)O)CC(=O)O)CC(=O)[O-].[Sr+2] [Example 13, SrEDTA Dimeglumine Salt]
  sleep each of the next two nights: about 10 hours
